Experimental findings from US10745428B2, “Antiviral phosphodiamide prodrugs of tenofovir” (Merck Sharp & Dohme Corp., priority 2015, dated 2020) are described below.

For the test, the system named is HIV-1 (H9/IIIB strain). The test can be described thus: Multiple round HIV-1 infection assay (Viking assay), HIV-1 replication in MT4-GFP cells. In kind it is cell-based. Conditions: MT4-GFP cells infected with HIV-1 H9/IIIB. As to the method: The antiviral activity of the tenofovir prodrugs of the Examples herein was assessed in an assay that measures the rate of replication of HIV in cell culture, termed the Viking assay (VIral KINetics in Green cells) and performed as follows. HIV-1 replication was monitored using MT4-gag-GFP clone D3 (hereafter designated MT4-GFP; GFP is green fluorescent protein), which are MT-4 cells modified to harbor a GFP reporter gene, the expression of which is dependent on the HIV-1 expressed proteins tat and rev; see Wang Y-J et al., 2010J Virological Methods 165:230-237. Productive infection of an MT4-GFP cell with HIV-1 results in GFP expression approximately 24 h post-infection. MT4-GFP cells were maintained at 37° C./5% CO2/90% relative humidity in RPMI 1640 supplemented with 10% fetal bovine serum, 100 U/ml penicillin/streptomycin, and 400 μg/ml G418 to maintain the reporter gene. For infections, MT4-GFP cells were placed in the same medium lacking G418 and infected overnight with HIV-1 (H9/IIIB strain) virus at an approximate multiplicity of infection of 0.01 in the same incubation conditions. Cells were then washed and re-suspended in either RPMI 1640 supplemented with 10% or 50% normal human serum (NHS) at 1.6×10^5 cells/mL (10% NHS or 50% NHS, respectively). Compound plates were prepared by dispensing compounds dissolved in DMSO into wells of 384 well poly-D-lysine-coated plates (0.2 μl/well) using an ECHO acoustic dispenser. Each compound was tested in a 10-point serial 3-fold dilution (typical final concentrations: 8.4 μM-0.42 nM). Controls included no inhibitor (DMSO only) and a combination of three antiviral agents (efavirenz, indinavir, and an integrase strand transfer inhibitor at final concentrations of 4 μM each). Cells were added (50 μL/well) to compound plates and the infected cells were maintained at 37′C/5% CO2/90% relative humidity.
Infected cells were quantified at two time points, ˜48 h and ˜72 h post-infection, by counting the number of green cells in each well using an Acumen eX3 scanner. The increase in the number of green cells over ˜24 h period gives the reproductive ratio, R0, which is typically 5-15 and has been shown experimentally to be in logarithmic phase (data not shown). R0 is calculated for each well, and IC50s determined by non-linear 4-parameter curve fitting.

Where [1] appears, read: 10% normal human serum, read-out: Viking, IC50 (10% NHS).
Where [2] appears, read: 50% normal human serum, read-out: Viking, IC50 (50% NHS).
Where [3] appears, read: Human immunodeficiency virus 1, IIIB, 10% normal human serum, read-out: Viking, IC50 (10% NHS).
Setting [4] is: Human immunodeficiency virus 1, IIIB, 50% normal human serum, read-out: Viking, IC50 (50% NHS).

As usually defined, the IC50 is the concentration at which inhibition is half-maximal.

Molecules are shown by their SMILES. Like-named read-outs stand apart in the source and are kept apart here.

With `CCCCCOC(=O)[C@@H](C)NP(=O)(CO[C@H](C)Cn1cnc2c(N)ncnc21)NC(C)(C)C(=O)OCCCCC` (single isomer, unassigned) [Example 16A], the half-maximal inhibitory concentration (IC50) under setting [1] was 0.01 µM and the half-inhibitory concentration (IC50) under setting [2] amounted to 0.0601 µM.
For `CC(C)OC(=O)[C@@H](C)NP(=O)(CO[C@H](C)Cn1cnc2c(N)ncnc21)NC(C)(C)C(=O)OC(C)C` (single isomer, unassigned) [Example 4B], in that order: 0.0746 µM and 0.122 µM.
For `CC(C)OC(=O)C(C)(C)NP(=O)(CO[C@H](C)Cn1cnc2c(N)ncnc21)N[C@H](C)C(=O)OC1CCCCC1` (single isomer, unassigned) [Example 6A], in that order: 0.101 µM and 0.501 µM.
In the case of `C[C@H](Cn1cnc2c(N)ncnc21)OCP(=O)(N[C@H](C)C(=O)OC1CCCC1)NC(C)(C)C(=O)OC1CCC1` (single isomer, unassigned) [Example 28A], the IC50 reads like this: under setting [3], 0.0054 µM; under setting [2], 0.0161 µM.
Regarding `CC(C)OC(=O)[C@@H](C)NP(=O)(CO[C@H](C)Cn1cnc2c(N)ncnc21)NC(C)(C)C(=O)OC(C)C` (single isomer, unassigned) [Example 4A], the concentration for half-maximal inhibition (IC50) under setting [1] came out at 0.418 µM and the IC50 under setting [2] amounted to 1.4 µM.
`CCCCCCOC(=O)[C@@H](C)NP(=O)(CO[C@H](C)Cn1cnc2c(N)ncnc21)NC(C)(C)C(=O)OC(C)C` (single isomer, unassigned) [Example 7B]: the IC50 reads like this: under setting [1], 0.0047 µM; under setting [2], 0.0288 µM.
As to `CCCCOC(=O)C(C)(C)NP(=O)(CO[C@H](C)Cn1cnc2c(N)ncnc21)N[C@H](C)C(=O)OC1CCC1` (single isomer, unassigned) [Example 23A], the IC50 amounted to 0.0067 µM under setting [3] and 0.0355 µM under setting [2].
`CCCCCCOC(=O)C(C)(C)NP(=O)(CO[C@H](C)Cn1cnc2c(N)ncnc21)N[C@H](C)C(=O)OC1CCCC1` (single isomer, unassigned) [Example 14A]: the IC50 runs as follows: under setting [1], 0.0098 µM; under setting [2], 0.0672 µM.
For `CC(C)OC(=O)C(C)(C)NP(=O)(CO[C@H](C)Cn1cnc2c(N)ncnc21)N[C@H](C)C(=O)OC1CCCCC1` (single isomer, unassigned) [Example 6B] the same measures were 0.0019 µM and 0.0056 µM.
For `CCCCCCOC(=O)C(C)(C)NP(=O)(CO[C@H](C)Cn1cnc2c(N)ncnc21)N[C@H](C)C(=O)OCC(C)C` (single isomer, unassigned) [Example 10A], in that order: 0.0066 µM and 0.0725 µM.
Consider `CCCCOC(=O)[C@@H](C)NP(=O)(CO[C@H](C)Cn1cnc2c(N)ncnc21)NC(C)(C)C(=O)OC(C)C` (single isomer, unassigned) [Example 3A], for which the IC50 runs as follows: under setting [1], 0.0207 µM; under setting [2], 0.0714 µM.
For `CCCCCOC(=O)[C@@H](C)NP(=O)(CO[C@H](C)Cn1cnc2c(N)ncnc21)NC(C)(C)C(=O)OC(C)C` (single isomer, unassigned) [Example 8B] the same measures were 0.0039 µM and 0.0207 µM.
For `CCCCCCOC(=O)[C@@H](C)NP(=O)(CO[C@H](C)Cn1cnc2c(N)ncnc21)NC(C)(C)C(=O)OC(C)C` (single isomer, unassigned) [Example 7A] the same measures were 0.0104 µM and 0.0578 µM.
For `CCCCCCOC(=O)C(C)(C)NP(=O)(CO[C@H](C)Cn1cnc2c(N)ncnc21)N[C@H](C)C(=O)OC1CCC1` (single isomer, unassigned) [Example 21B], in that order: 0.0007 µM and 0.0028 µM.
As to `CCCCCOC(=O)C(C)(C)NP(=O)(CO[C@H](C)Cn1cnc2c(N)ncnc21)N[C@H](C)C(=O)OC1CCC1` (single isomer, unassigned) [Example 19A], the concentration for half-maximal inhibition (IC50) amounted to 0.0069 µM under setting [1] and 0.0274 µM under setting [2].
For `CC(C)COC(=O)[C@@H](C)NP(=O)(CO[C@H](C)Cn1cnc2c(N)ncnc21)NC(C)(C)C(=O)OC(C)C` (single isomer, unassigned) [Example 5B], in that order: 0.0025 µM and 0.0064 µM.
For `CCCCCCOC(=O)C(C)(C)NP(=O)(CO[C@H](C)Cn1cnc2c(N)ncnc21)N[C@H](C)C(=O)OC1CCC1` (single isomer, unassigned) [Example 21A] the same measures were 0.0044 µM and 0.0149 µM.
For `CC(C)OC(=O)C(C)(C)NP(=O)(CO[C@H](C)Cn1cnc2c(N)ncnc21)N[C@H](C)C(=O)OC1CCCC1` (single isomer, unassigned) [Example 1A] the same measures were 0.0193 µM and 0.0443 µM.
Take `CCCCCCOC(=O)C(C)(C)NP(=O)(CO[C@H](C)Cn1cnc2c(N)ncnc21)N[C@H](C)C(=O)OC1CCCCC1` (single isomer, unassigned) [Example 15A]: the IC50 is 0.0077 µM under setting [1] and 0.0259 µM under setting [2].
For `CCCCCCOC(=O)C(C)(C)NP(=O)(CO[C@H](C)Cn1cnc2c(N)ncnc21)N[C@H](C)C(=O)OCCCCC` (single isomer, unassigned) [Example 12A] the same measures were 0.0073 µM and 0.0544 µM.
For `CC(C)COC(=O)[C@@H](C)NP(=O)(CO[C@H](C)Cn1cnc2c(N)ncnc21)NC(C)(C)C(=O)OC(C)C` (single isomer, unassigned) [Example 5A] the same measures were 0.0331 µM and 0.129 µM.
For `CC(C)OC(=O)C(C)(C)NP(=O)(CO[C@H](C)Cn1cnc2c(N)ncnc21)N[C@H](C)C(=O)OC1CCC1` (single isomer, unassigned) [Example 18A], the IC50 is, setting by setting: under setting [3], 0.02 µM; under setting [4], 0.0342 µM.
`CCCCCCOC(=O)C(C)(C)NP(=O)(CO[C@H](C)Cn1cnc2c(N)ncnc21)N[C@H](C)C(=O)OCCCC` (single isomer, unassigned) [Example 11B]: the IC50 stood at 0.0008 µM under setting [1] and 0.0026 µM under setting [2].
For `CCCCCCOC(=O)C(C)(C)NP(=O)(CO[C@H](C)Cn1cnc2c(N)ncnc21)N[C@H](C)C(=O)OCCCCC` (single isomer, unassigned) [Example 12B] the same measures were 0.0005 µM and 0.0033 µM.
For the compound `CCCCCOC(=O)[C@@H](C)NP(=O)(CO[C@H](C)Cn1cnc2c(N)ncnc21)NC(C)(C)C(=O)OC(C)C` (single isomer, unassigned) [Example 8A], the half-maximal inhibitory concentration (IC50) under setting [4] was 0.0414 µM and the IC50 under setting [1] was found to be 0.0126 µM.
On to `C[C@H](Cn1cnc2c(N)ncnc21)OCP(=O)(N[C@H](C)C(=O)OC1CCCC1)NC(C)(C)C(=O)OC1CCCCC1` (single isomer, unassigned) [Example 27A], for which the IC50 under setting [1] was found to be 0.0129 µM and the half-maximal inhibitory concentration (IC50) under setting [2] was found to be 0.0645 µM.
Take `CCCCCOC(=O)[C@H]1CCCN1P(=O)(CO[C@H](C)Cn1cnc2c(N)ncnc21)NC(C)(C)C(=O)OCCCCC` (single isomer, unassigned) [Example 26A]: the IC50 is, setting by setting: under setting [3], 0.0053 µM; under setting [2], 0.0503 µM.
Turning to `CCCCCCOC(=O)C(C)(C)NP(=O)(CO[C@H](C)Cn1cnc2c(N)ncnc21)N[C@H](C)C(=O)OCCCC` (single isomer, unassigned) [Example 11A], the IC50 by setting is: under setting [1], 0.0099 µM; under setting [2], 0.099 µM.
